Experimental data taken from patent publication US20070264661A1, “METHOD FOR RAPID IDENTIFICATION OF MOLECULES WITH FUNCTIONAL ACTIVITY TOWARDS BIOMOLECULAR TARGETS” (Isis Pharmaceuticals, Inc., priority 2003, published 2007).

Legend:
[1] = test system: 16S control construct (16Sc); assay: ESI-FTICR MS screening for noncovalent binding to the 16Sc control RNA construct; design: species or system E. coli
Method: (§1) Samples were brought to 0.1% heptafluorobutyric acid (HFBA) by the addition of 1% HFBA. A Gilson HPLC system consisting of four 306 pumps and a Gilson 215 liquid handler was used to perform the separations. Sample injection volume was 3 mL. Separation was carried out using a 250×10 mm Phenomenex Aqua C18 column, with a 50×10 mm guard column. Components were eluted using 0.1% HFBA and a gradient of 0 to 40% Acetonitrile (ACN) at a flow rate of 3 mL/min. over 45 minutes. 1 mL fractions were collected every 20 seconds and were assayed without further preparation.
RNA constructs 16S and 16Sc (FIG. 1A) were obtained from Dharmacon Research, Boulder, Colo. The 16Sc construct contains an 18-atom hexaethylene glycol chain attached to the 5′ terminus of the oligonucleotide as supplied by the manufacturer. The addition of this chain results in a net addition of C12H24O9 P (monoisotopic mass calc 344.1236) to the 16Sc oligonucleotide sequence shown in FIG. 1. The RNA was deprotected according to the manufacturer's directions and ethanol precipitated twice from 1 M ammonium acetate. […]
The presence of both a specific (16S) and non-specific (16Sc) RNA construct enables the simultaneous determination of binding specificity between target and ligand. In the absence of ligand, the initial peak intensity ratio of 16Sc/16S was determined to be 0.3 as shown in the control spectrum shown in FIG. 1B. […]

[2] = test system: E. coli 16S ribosomal A-site (16S) 27-mer synthetic RNA construct; assay: ESI-FTICR MS screening for noncovalent binding to the 16S RNA construct
Method: as §1
RNA constructs 16S and 16Sc (FIG. 1A) were obtained from Dharmacon Research, Boulder, Colo. The 16Sc construct contains an 18-atom hexaethylene glycol chain attached to the 5′ terminus of the oligonucleotide as supplied by the manufacturer. The addition of this chain results in a net addition of C12H24O9 P (monoisotopic mass calc 344.1236) to the 16Sc oligonucleotide sequence shown in FIG. 1. The RNA was deprotected according to the manufacturer's directions and ethanol precipitated twice from 1 M ammonium acetate. Paromomycin (MW=615.2963 Da), was obtained from Sigma (St. Louis, Mo.) and ICN (Costa Mesa, Calif.).
The construct shown on the left in FIG. 1A (16S) is the 27-mer synthetic RNA containing the E. coli 16S ribosomal A-site (Purohit, P.; Stern, S. Nature 1994, 370, 659-662). Two positions in the E. coli 16S RNA are noted numerically as 1408 and 1492, referring to the location of these residues in the intact 16S rRNA. These positions have been previously shown to be critical for aminoglycoside recognition and binding (Griffey, R. H.; Hofstadler, S. A.; Sannes-Lowery, K. A.; Ecker, D. J.; Crooke, S. T. Proc. Natl. Acad. Sci. U. S. A. 1999, 96, 10129-10133; Fourmy, D.; Recht, M. I.; Blanchard, S. C.; Puglisi, J. D. Science (Washington, D.C.) 1996, 274, 1367-1371).
Mass spectrometry was performed on a modified Bruker Daltonics (Billerica, Mass.) Apex II 70e electrospray ionization Fourier transform ion cyclotron resonance mass spectrometer equipped with an actively shielded 7 tesla superconducting magnet. Experiments were performed with the source at room temperature, the skimmer potential was held at 0 volts, the capillary exit potential was −126 volts, and other experimental parameters were as described in detail elsewhere (Sannes-Lowery, K. A.; Drader, J. J.; Griffey, R. H.; Hofstadler, S. A. TrAC, Trends Anal. Chem. 2000, 19, 481-491). Binding reactions were comprised of 15 μl of a solution containing 2.5 μM 16S and 16Sc in 100 mM NH4OAc and 33% isopropyl alcohol and 2 μl of the LC fraction in a 96-well microtiter plate. […] The plates were vortexed briefly, and then incubated for 60 minutes at room temperature prior to analysis. Sample aliquots were injected directly from 96-well microtiter plates using a CTC HTS PAL autosampler (LEAP Technologies, Carrboro, N.C.).
The presence of both a specific (16S) and non-specific (16Sc) RNA construct enables the simultaneous determination of binding specificity between target and ligand. In the absence of ligand, the initial peak intensity ratio of 16Sc/16S was determined to be 0.3 as shown in the control spectrum shown in FIG. 1B. The peak intensity ration of 16Sc/16S should remain constant in the absence of ligand binding activity. If a ligand specifically binds the 16S RNA target, the peak intensity ratio of 16Sc/16S will […], while a ligand that binds non-specifically to both targets will not cause a significant change in the peak intensity ratio of 16Sc/16S. Thus, monitoring the 16Sc/16S peak intensity ratio is a convenient metric for characterizing binding specificity.

NC[C@@H]1O[C@H](O[C@H]2[C@@H](O)[C@H](O[C@@H]3[C@@H](O)[C@H](N)C[C@H](N)[C@H]3O[C@H]3O[C@H](CO)[C@@H](O)[C@H](O)[C@H]3N)O[C@@H]2CO)[C@H](N)[C@@H](O)[C@@H]1O [paromomycin, Paromomycin] was tested, and the “abundance of the non-specific complex of 16Sc+paromomycin (relative to 16Sc)” value ([1]; fraction 146 (~54.7 minutes), FIG. 4) was 13%, the “binding to the 16Sc RNA (result in words)” value ([1]; fraction #131, peak would be expected at m/z 1982.11) was “does not indicate a peak corresponding to paromomycin binding to the 16Sc RNA” and the “binding specificity 16S vs 16Sc (result in words)” value ([2]; 2.5 μM 16S and 16Sc, 100 mM NH4OAc, 33% isopropyl alcohol) was “binding specifically to 16S RNA”. For the same compound, the “specificity for the 16S RNA target relative to the new molecule (59-fold vs. 5-fold)” value ([2]; fraction 146) was “approximately 11 fold”, the “abundance of the specific complex of 16S+paromomycin compared to 16S” value ([2]; fraction 146 (~54.7 minutes) of S. rimosus sp. paromomycinus broth, 5- charge state, FIG. 4) was 770% and the “specificity of binding to the 16S RNA target over the 16Sc RNA construct” value ([2]; fraction 146, ratio of complex abundances 16S vs 16Sc) was “approximately 59 fold”. The “peak intensity ratio of 16Sc/16S RNA” value ([2]; fraction #131 (~49.5 minutes), baseline ratio without ligand 0.3) was 0.79 and the “number of paromomycin molecules binding to 16S and 16Sc RNA” value ([2]; peak of the paromomycin elution (e.g. fraction 138), data not shown) was “one to four”.
